According to PMC9658984, “Acetylation Enhances the Anticancer Activity and Oral Bioavailability of 5-Demethyltangeretin” (International Journal of Molecular Sciences, 2022):
Marks after values point to notes of the source that are not given here.

Experiments:
[1] = system: PC-3 human prostate cancer cells; test: MTT cell viability assay; type: cell-based; conditions: PC-3 cells, 48 h; for IC50: Homo sapiens, MTT
Method: PC-3 human prostate cancer cell line was obtained from the Bioresource Collection and Research Center (Hsinchu, Taiwan) and maintained in RPMI medium with 10% FBS and 1% penicillin-streptomycin (PS). The cells were incubated in a 5% CO2 humidified atmosphere at 37 °C. TAN, 5-DTAN, and 5-ATAN were dissolved in DMSO to prepare a 20 mM sample stock, and the final ratio of the DMSO in the treatment medium was 0.1%.
(§1) PC-3 cells were seeded in 96-well plates at a density of 2.5 × 10^3 cells/well and allowed to attach for 24 h. The medium was changed to serum-free RPMI supplemented with 0–20 μM TAN, 5-DTAN, or 5-ATAN, and then incubated for an additional 48 h. The cell viability was determined by the MTT assay and represented as a percentage of the growth of the DMSO-treated cells. FACScan flow cytometer (Becton Dickinson, San Jose, CA, USA) was used to analyze the cell cycle distribution as previously mentioned. Briefly, PC-3 cells treated with various concentrations of 5-DTAN or 5-ATAN for 48 h were trypsinized and gently fixed in 70% ice-cold ethanol and stored at −20 °C for at least 24 h. Then, the cells were washed with cold phosphate-buffered saline (PBS), followed by incubation with 40 μg/mL PI, 0.1 mg/mL RNase A, and 0.1% TritonX-100 in the dark for 30 min at room temperature. Subsequently, the cell cycle distribution of the PI-stained cells was analyzed by a FACScan flow cytometer, and the results were analyzed and calculated using ModFit LT Ver. 3.0 software. The proportion of the sub-G1 phase was quantitated and represented as the apoptotic ratio. Furthermore, a QIAamp DNA mini kit was used to extract DNA from the PC-3 cells treated with 5-DTAN or 5-ATAN for 48 h. Then, the extracted DNA was loaded on a 2% agarose gel containing HealthView^TM Nucleic Acid Stain (Genomics, New Taipei, Taiwan) for electrophoresis at 50 V. The gel was visualized under UV light, and the DNA fragmentation pattern was photographed.

[2] = Tissue distribution of 5-DTAN after 7 days oral dosing; type: in vivo; conditions: 50 mg/kg i.g., 7 consecutive days, C57BL/6J mice; except kidney and lung
Method: Basically, esterase in the cytosol and plasma rapidly converts 5-ATAN absorbed into cells or into the blood circulation to 5-DTAN by deacetylation. The 5-DTAN in 5-DTAN-treated and 5-ATAN-treated samples can be determined by the HPLC-electrochemical detection (ECD) method. PC-3 cells were seeded in 10 cm dishes (1 × 10^6 cells) and allowed to attach for 24 h. Subsequently, cells were treated with various concentrations of 5-DTAN or 5-ATAN for 12 h, or with 15 µM of 5-DTAN or 5-ATAN for different time periods. Then, the cells were washed with cold PBS, collected, and centrifuged at 300× g for 5 min to remove the supernatant. […] The cytosolic levels of 5-DTAN in the resulting supernatant were analyzed by HPLC with an Ascentis RP-Amide column (L × I.D. 15 cm × 4.6 mm, 3 μm) (Merck KGaA, Darmstadt, Germany) as previously described. […] The samples were reconstituted in methanol and the levels of 5-DTAN were analyzed by HPLC-ECD. Pharmacokinetic parameters, including maximum concentration (Cmax), maximum time (Tmax), half-life (T1/2), and area under the curve (AUC), were calculated and obtained by the Thermo kinetica 5.0 software (Thermo Fisher Scientific, Waltham, MA, USA). […] The supernatant was obtained by centrifuging at 15,130× g for 15 min at 4 °C and then extracted with an equal volume of ethyl acetate and analyzed using the methods described above.

[3] = system: PC-3 cells; test: DNA fragmentation (agarose gel electrophoresis); type: cell-based, human; conditions: 48 h
Method: as §1, with “Then, the extracted DNA was loaded on a 2% agarose gel containing HealthView^TM Nucleic Acid Stain (Genomics, New Taipei, Taiwan) for electrophoresis at 50 V. The gel was visualized under UV light, and the DNA fragmentation pattern was photographed.” left out

[4] = system: Bcl-xL; test: Western blot protein expression, Bcl-xL; type: cell-based, human; conditions: PC-3 cells, 10 µM
Method: (§2) Western blot was performed to analyze the protein expression in the PC-3 Cells. The cells were exposed to indicated concentrations of 5-ATAN for various time periods at 37 °C. Then, they were washed with cold PBS and harvested, and a Western blot was conducted as previously described.

[5] = system: CL1-5 cell xenograft; design: method as in PMID 26569090; conditions: 20 mg/kg i.p., CL1-5 cell xenograft mice; cited from earlier work
[6] = system: MMP-9; test: Western blot protein expression, MMP-9; type: cell-based, human; conditions: PC-3 cells, 5 µM, effect enhanced with treatment time
Method: as §2

[7] = system: caspase-3; test: Caspase-3 activity by flow cytometry (CaspGLOW staining); type: cell-based, human; conditions: PC-3 cells, 48 h
Method: (§3) The PC-3 cells were treated with the indicated concentration of 5-DTAN or 5-ATAN for 48 h, and then cells were collected and stained by a CaspGLOW^TM Fluorescein Active Caspase-3 Staining Kit (Thermo Fisher Scientific, MA, USA) or 3,3′-dihexyloxacarbocyanine iodide (DiOC6, Merck Millipore, Burlington, MA, USA) for caspase-3 activity and mitochondria membrane potential analysis, respectively. The percentages of caspase-3-activated or DiOC6-positive cells were measured using a flow cytometer and calculated by the CellQuest Pro software.

[8] = system: PC-3 cell xenografts; test: Tumor growth inhibition in PC-3 cell xenograft model; type: in vivo, nude mice; conditions: for Tumor growth inhibitory rate, estimated by the means of tumor weight / Tumor weight at the end of the experiment: 10 mg/kg daily oral, nude mice; for Tumor weight at the end of the experiment: day 24, control 2.47 ± 0.43 g; for Effect on tumor volume: 10 mg/kg daily, PC-3 cell xenografts in nude mice
Text: Male nu/nu mice were obtained from BioLasco Taiwan (Taipei, Taiwan) and maintained on a standard laboratory chow (Purina rodent chow 5001, Purina, St. Louis, MO, USA). At 5 weeks of age, nude mice were used for the xenograft experiment. For the oral bioavailability study, 5-week-old male […] mice were purchased from the National Laboratory Animal Center (Taipei, Taiwan), and the experiment was started after 1 week of acclimation. All mice were housed in an air-conditioned room (temperature: 22 ± 2 °C; humidity: 50–60%) under standard conditions (12 h light/12 h dark cycle). All animal studies were approved by the National Pingtung University of Science and Technology, Institutional Animal Care and Use Committee with protocol numbers NPUST-102-015 and NPUST-105-045.
The 5-week-old nude mice were divided into three groups (n = 6) and administered with the vehicle, 5-DTAN (10 mg/kg), and 5-ATAN (10 mg/kg), respectively. Tumors were established by subcutaneous injections of PC-3 cells (1 × 10^6 cells) into the right flank side of nude mice. The tumor size was measured twice a week with digital calipers, and the tumor volume (V) was calculated by the following formula: V = length × width^2 × 0.5. On day 24, the mice were sacrificed by CO2, and the tumors were harvested and weighed.

[9] = system: MMP-2; test: Western blot protein expression, MMP-2; type: cell-based, human; conditions: PC-3 cells, 5 µM, only at 48 h
Method: as §2

[10] = system: Bax; test: Western blot protein expression, Bax; type: cell-based, human; conditions: PC-3 cells, 10 µM
Method: as §2

[11] = system: PC-3 cells; test: Wound healing cell migration assay; type: cell-based, human; conditions: 24 h
Method: (§4) The colony formation assay was conducted using a procedure modified from the previous report. PC-3 cells were seeded in 6-well plates at a density of 500 cells/well and allowed to attach for 24 h. Subsequently, the cells were treated with various concentrations of 5-ATAN. After 14 days of incubation, the colonies formed were observed by crystal violet staining and photographed. The wound healing assay was performed to assess the effect of 5-ATAN on the migration ability of PC-3 cells. Cells were seeded into a 6 cm dish at a cell density of 1 × 10^6 cells/well. After being cultured at 37 °C for 24 h, a 200 µL yellow pipette tip was used to scrape a gap in the middle of the dish. After washing twice with 1X PBS solution, the medium was replaced with fresh, serum-free medium containing different concentrations of 5-ATAN and incubated for 24 h. Then, the images were taken with an inverted phase contrast microscope at a magnification of 100×, and the Image J software was used for the measurement of the wound width. The percentage of cell migration (% of control) was calculated by measuring the movement of the cells into the scratch area after 24 h of treatment with DMSO or 5-ATAN.

[12] = system: PC-3 cells; test: Colony formation assay; type: cell-based, human; conditions: PC-3 cells, 1.25, 2.5 and 5 µM, 14 days
Method: as §4

[13] = system: Cyclin B1; test: Western blot protein expression, Cyclin B1; type: cell-based, human; conditions: PC-3 cells, 10 µM, time-dependent
Method: as §2

[14] = system: PC-3 cells; test: Cell cycle distribution / sub-G1 apoptotic ratio by PI flow cytometry; type: cell-based, human; conditions: 48 h
Method: as §1

[15] = system: Cdc2; test: Western blot protein expression, Cdc2; type: cell-based, human; conditions: PC-3 cells, 10 µM, only after 48 h
Method: as §2

[16] = system: PC-3 cells; test: Mitochondrial membrane potential (DiOC6, flow cytometry); type: cell-based, human; conditions: 2.5-10 µM, 48 h
Method: as §3

[17] = system: Cdc25c; test: Western blot protein expression, Cdc25c; type: cell-based, human; conditions: PC-3 cells, 10 µM, time-dependent
Method: as §2

[18] = design: method as in doi:10.1016/j.jff.2008.09.003; conditions: cited from earlier work

| SMILES | IC50 [1] [µM] | Concentration at which DNA ladders were observed [3] | Tumor growth inhibitory rate, estimated by the means of tumor weight [8] [%] | Tumor weight at the end of the experiment [8] [g] | Effect on tumor volume [8] | Cell Cycle Distribution (%) G0/G1 ([14]; 2.5 μM) | Cell Cycle Distribution (%) G2/M ([14]; 2.5 μM) | Cell Cycle Distribution (%) S ([14]; 2.5 μM) | Cell Cycle Distribution (%) G0/G1 ([14]; 5 μM) | Cell Cycle Distribution (%) G2/M ([14]; 5 μM) | Cell Cycle Distribution (%) S ([14]; 5 μM) | Cell Cycle Distribution (%) G0/G1 ([14]; 10 μM) | Cell Cycle Distribution (%) G2/M ([14]; 10 μM) | Cell Cycle Distribution (%) S ([14]; 10 μM) | other results |
| --- | --- | --- | --- | --- | --- | --- | --- | --- | --- | --- | --- | --- | --- | --- | --- |
| COc1ccc(-c2cc(=O)c3c(OC(C)=O)c(OC)c(OC)c(OC)c3o2)cc1 [5-ATAN, 5-acetyloxy-6,7,8,4′-tetramethoxyflavone] | 5.1 | higher than 5 μM | 61.9 | 0.94 ± 0.18 | significantly suppressed | 58.5 ± 1.1 ^A % | 34.7 ± 0.8 ^C % | 6.8 ± 0.3 ^B % | 49.1 ± 0.3 ^B % | 45.7 ± 0.5 ^B % | 5.2 ± 0.3 ^C % | 44.7 ± 0.3 ^C % | 50.3 ± 1.3 ^A % | 4.6 ± 0.5 ^D % | IC50 fold lower than that of 5-DTAN [1]: 2.3 fold; IC50 fold lower than that of TAN [1]: 3.4 fold; Levels of 5-DTAN in most tissues vs 5-DTAN-treated mice [2]: significantly higher; Expression of Bcl-xL [4]: marked decrease; Tumor growth inhibitory rate [5]: 43%; Expression of MMP-9 [6]: significantly inhibited; Percentage of caspase-3 activity ([7]; 2.5 μM): 7.2 ± 0.6%; Percentage of caspase-3 activity ([7]; 5 μM): 9.1 ± 1.7%; Percentage of caspase-3 activity ([7]; 10 μM): 18.8 ± 02.4%; Expression of MMP-2 [9]: obviously inhibited; Expression of Bax [10]: slight increase; Suppression of migration compared to the control ([11]; 1.25 µM): 35.5%; Suppression of migration compared to the control ([11]; 2.5 µM): 48.5%; Suppression of migration compared to the control ([11]; 5 µM): 73.6%; Number of colonies [12]: dose-dependently decreased; Expression of Cyclin B1 [13]: dramatically down-regulated; Apoptotic cells (sub-G1) ([14]; 10 μM): 22.2%; Expression of Cdc-2 [15]: reduced; Effect on mitochondrial membrane potential [16]: dose-dependent decline; Expression of Cdc25c [17]: dramatically down-regulated |
| COc1ccc(-c2cc(=O)c3c(O)c(OC)c(OC)c(OC)c3o2)cc1 [5-DTAN, 5-hydroxy-6,7,8,4′-tetramethoxyflavone, reference compound] | 11.8 | 20 µM | 43.7 | 1.39 ± 0.36 | significantly suppressed | 60.2 ± 2.8 ^b % | 31.6 ± 2.7 ^a % | 8.2 ± 0.1% | 59.9 ± 0.4 ^b % | 31.4 ± 0.5 ^a % | 8.7 ± 0.3% | 58.2 ± 2.4 ^b % | 32.6 ± 1.1 ^a % | 8.5 ± 0.9% | Solubility in biological systems [18]: extremely poor solubility |
| COc1ccc(-c2cc(=O)c3c(OC)c(OC)c(OC)c(OC)c3o2)cc1 [TAN, 5,6,7,8,4′-pentamethoxyflavone, reference compound] | 17.2 | – | – | – | – | – | – | – | – | – | – | – | – | – | – |
